Publication PMC4168798 (ACS Chemical Biology, 2014)

Assays:
[1] = target: T1, Mcl-1 (Homo sapiens, UniProt Q07820); test: direct fluorescence anisotropy binding
[2] = target: T2, KSBcl-2 (Human herpesvirus 8 type P, UniProt F5HGJ3); test: direct fluorescence anisotropy binding; parameters: species or system Kaposi sarcoma herpesvirus
T2 sequence (F5HGJ3 1-150): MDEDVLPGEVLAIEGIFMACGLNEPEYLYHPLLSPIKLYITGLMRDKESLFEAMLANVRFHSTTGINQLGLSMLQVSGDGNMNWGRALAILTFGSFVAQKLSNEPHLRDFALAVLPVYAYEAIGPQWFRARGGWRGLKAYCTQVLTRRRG

[3] = target: T1, Mcl-1; test: competition fluorescence anisotropy vs fluoresceinated Bim; conditions: biochemical competition binding experiments; four other human Bcl-2 paralogs
[4] = target: Bcl-2 (Homo sapiens, UniProt P10415); test: direct fluorescence anisotropy binding
Chain of Bcl-2 (Homo sapiens, UniProt P10415) (P10415 1-217 limits assumed): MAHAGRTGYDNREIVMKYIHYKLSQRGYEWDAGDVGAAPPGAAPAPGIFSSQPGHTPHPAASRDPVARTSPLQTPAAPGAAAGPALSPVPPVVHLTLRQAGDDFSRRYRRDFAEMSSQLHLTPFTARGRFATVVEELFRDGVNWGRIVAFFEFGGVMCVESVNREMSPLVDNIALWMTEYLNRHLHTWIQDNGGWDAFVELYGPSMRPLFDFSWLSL

[5] = tested on: Bcl-xL; conditions: NoxaA BH3 peptide from murine Noxa; cited from earlier work
[6] = tested on: Bcl-2; conditions: NoxaA BH3 peptide from murine Noxa; cited from earlier work
[7] = tested on: Bcl-w; conditions: NoxaA BH3 peptide from murine Noxa; cited from earlier work
[8] = tested on: Bfl-1; conditions: NoxaA BH3 peptide from murine Noxa; cited from earlier work
[9] = target: T3, Bfl-1 (Homo sapiens, UniProt Q16548); test: direct fluorescence anisotropy binding
T3 sequence (Q16548 1-151 limits assumed): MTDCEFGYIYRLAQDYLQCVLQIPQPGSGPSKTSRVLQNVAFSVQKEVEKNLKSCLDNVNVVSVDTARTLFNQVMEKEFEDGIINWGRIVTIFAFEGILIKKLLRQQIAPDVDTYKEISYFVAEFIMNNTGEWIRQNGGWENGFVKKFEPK

[10] = target: T4, Bcl-w (Homo sapiens, UniProt Q92843); test: direct fluorescence anisotropy binding
T4 sequence (Q92843 1-164 limits assumed): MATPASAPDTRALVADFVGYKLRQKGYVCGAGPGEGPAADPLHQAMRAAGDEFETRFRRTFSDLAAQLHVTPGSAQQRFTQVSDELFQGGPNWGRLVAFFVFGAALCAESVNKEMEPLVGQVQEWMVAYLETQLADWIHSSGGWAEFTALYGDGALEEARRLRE

[11] = target: Bcl-xL (Homo sapiens, UniProt Q07817); test: direct fluorescence anisotropy binding
Chain of Bcl-xL (Homo sapiens, UniProt Q07817) (Q07817 1-209 limits assumed): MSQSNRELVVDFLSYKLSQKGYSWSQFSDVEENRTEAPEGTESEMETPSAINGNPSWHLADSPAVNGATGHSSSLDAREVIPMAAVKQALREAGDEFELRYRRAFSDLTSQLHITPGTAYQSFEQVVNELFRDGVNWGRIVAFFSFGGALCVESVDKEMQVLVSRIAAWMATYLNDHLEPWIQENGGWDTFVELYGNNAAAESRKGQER

T1 sequence (Q07820 172-327 limits assumed): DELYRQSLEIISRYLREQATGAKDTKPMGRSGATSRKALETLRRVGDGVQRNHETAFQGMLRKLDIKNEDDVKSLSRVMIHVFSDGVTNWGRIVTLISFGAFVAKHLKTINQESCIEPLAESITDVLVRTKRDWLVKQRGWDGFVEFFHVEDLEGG

CC[C@H](C)[C@H](NC(=O)[C@H](CCC(=O)O)NC(=O)[C@@H]1CCCN1C(=O)[C@@H](N)CCCNC(=N)N)C(=O)N[C@@H](Cc1c[nH]c2ccccc12)C(=O)N[C@H](C(=O)N[C@H](C(=O)N[C@@H](CCC(N)=O)C(=O)N[C@@H](CCC(=O)O)C(=O)N[C@@H](CC(C)C)C(=O)N[C@@H](CCCNC(=N)N)C(=O)N[C@@H](CCCNC(=N)N)C(=O)N[C@@H](CC(C)C)C(=O)NCC(=O)N[C@@H](CC(=O)O)C(=O)N[C@@H](CCC(=O)O)C(=O)N[C@@H](Cc1ccccc1)C(=O)N[C@@H](CC(N)=O)C(=O)N[C@@H](C)C(=O)N[C@@H](Cc1ccc(O)cc1)C(=O)N[C@@H](Cc1ccc(O)cc1)C(=O)N[C@@H](C)C(=O)N[C@@H](CCCNC(=N)N)C(N)=O)[C@@H](C)O)[C@@H](C)CC [Bim_A2eT_I3dL]
Kd [1]: < 1 nM

CC[C@H](C)[C@H](NC(=O)[C@H](CCC(=O)O)NC(=O)[C@H](CC(=O)O)NC(=O)CNC(=O)[C@H](CC(C)C)NC(=O)[C@H](CCCNC(=N)N)NC(=O)[C@H](CCCNC(=N)N)NC(=O)[C@H](CC(C)C)NC(=O)CNC(=O)[C@H](CCC(N)=O)NC(=O)[C@@H](NC(=O)[C@H](CCSC)NC(=O)[C@H](Cc1c[nH]c2ccccc12)NC(=O)[C@@H](NC(=O)[C@H](CCC(=O)O)NC(=O)[C@@H]1CCCN1C(=O)[C@H](CCCNC(=N)N)NC(C)=O)[C@@H](C)CC)[C@@H](C)O)C(=O)N[C@@H](CC(N)=O)C(=O)N[C@@H](C)C(=O)N[C@@H](Cc1ccc(O)cc1)C(=O)N[C@@H](Cc1ccc(O)cc1)C(=O)N[C@@H](C)C(=O)N[C@@H](CCCNC(=N)N)C(N)=O [MS1]
Kd [2]: 2.9 ± 0.68 nM
specificity for Mcl-1 over Bcl-xL, Bcl-2, Bcl-w and Bfl-1 [3]: ≥ 40 fold

CC[C@H](C)[C@H](NC(=O)[C@H](CCC(=O)O)NC(=O)[C@H](CC(=O)O)NC(=O)CNC(=O)[C@H](CC(C)C)NC(=O)[C@H](CCCNC(=N)N)NC(=O)[C@H](CCC(N)=O)NC(=O)[C@H](CC(C)C)NC(=O)[C@H](Cc1c[nH]cn1)NC(=O)[C@H](CCC(N)=O)NC(=O)[C@@H](NC(=O)[C@H](CC(C)C)NC(=O)[C@H](Cc1c[nH]c2ccccc12)NC(=O)[C@@H](NC(=O)[C@H](CCC(=O)O)NC(=O)[C@@H]1CCCN1C(=O)[C@@H](N)CCCNC(=N)N)[C@@H](C)CC)[C@@H](C)O)C(=O)N[C@@H](CC(N)=O)C(=O)N[C@@H](C)C(=O)N[C@@H](Cc1ccc(O)cc1)C(=O)N[C@@H](Cc1ccc(O)cc1)C(=O)N[C@@H](C)C(=O)N[C@@H](CCCNC(=N)N)C(N)=O [MS3]
Kd [1]: 2 ± 1.2 nM
Kd [4]: > 3000 nM

CC[C@H](C)[C@H](NC(=O)[C@H](CCCCN)NC(=O)[C@H](CCCNC(=N)N)NC(=O)[C@H](CC(C)C)NC(=O)[C@H](CCC(N)=O)NC(=O)[C@H](C)NC(=O)[C@H](C)NC(=O)[C@H](Cc1ccccc1)NC(=O)[C@H](CCC(=O)O)NC(=O)[C@@H]1CCCN1C(=O)[C@@H]1CCCN1C(=O)[C@H](CC(C)C)NC(=O)[C@H](CCC(=O)O)NC(=O)[C@H](C)NC(C)=O)C(=O)NCC(=O)N[C@@H](CC(=O)O)C(=O)N[C@@H](CCCCN)C(=O)N[C@H](C(=O)N[C@@H](Cc1ccc(O)cc1)C(=O)N[C@@H](CS)C(N)=O)C(C)C [NoxaA]
no binding to Bcl-xL up to [5]: > 2500 nM
no binding to Bcl-2 up to [6]: > 2500 nM
no binding to Bcl-w up to [7]: > 2500 nM
no binding to Bfl-1 up to [8]: > 2500 nM

CC[C@H](C)[C@H](NC(=O)[C@H](CCC(=O)O)NC(=O)[C@H](CC(=O)O)NC(=O)CNC(=O)[C@H](CC(C)C)NC(=O)[C@H](CCCNC(=N)N)NC(=O)[C@H](CCC(N)=O)NC(=O)[C@H](CC(C)C)NC(=O)[C@H](CO)NC(=O)[C@H](CCC(N)=O)NC(=O)[C@@H](NC(=O)[C@H](CC(C)C)NC(=O)[C@H](Cc1c[nH]c2ccccc12)NC(=O)[C@@H](NC(=O)[C@H](CCC(=O)O)NC(=O)[C@@H]1CCCN1C(=O)[C@H](CCCNC(=N)N)NC(C)=O)[C@@H](C)CC)[C@@H](C)O)C(=O)N[C@@H](CC(N)=O)C(=O)N[C@@H](C)C(=O)N[C@@H](Cc1ccc(O)cc1)C(=O)N[C@@H](Cc1ccc(O)cc1)C(=O)N[C@@H](C)C(=O)N[C@@H](CCCNC(=N)N)C(N)=O [MS2]
Kd [2]: < 1 nM

CC[C@H](C)[C@H](NC(=O)[C@H](CCCNC(=N)N)NC(=O)[C@H](CCCNC(=N)N)NC(=O)[C@H](CC(C)C)NC(=O)[C@H](CCC(=O)O)NC(=O)[C@H](CCC(N)=O)NC(=O)[C@@H](NC(=O)[C@@H](NC(=O)[C@H](Cc1c[nH]c2ccccc12)NC(=O)[C@@H](NC(=O)[C@H](CCC(=O)O)NC(=O)[C@@H]1CCCN1C(=O)[C@@H](N)CCCNC(=N)N)[C@@H](C)CC)[C@@H](C)CC)[C@@H](C)O)C(=O)NCC(=O)N[C@@H](CC(=O)O)C(=O)N[C@@H](CCC(=O)O)C(=O)N[C@@H](Cc1ccccc1)C(=O)N[C@@H](CC(N)=O)C(=O)N[C@@H](C)C(=O)N[C@@H](Cc1ccc(O)cc1)C(=O)N[C@@H](Cc1ccc(O)cc1)C(=O)N[C@@H](C)C(=O)N[C@@H](CCCNC(=N)N)C(N)=O [Bim_A2eT]
Kd [1]: < 1 nM

CC[C@H](C)[C@H](NC(=O)[C@H](CCCNC(=N)N)NC(=O)[C@H](CCCNC(=N)N)NC(=O)[C@H](CC(C)C)NC(=O)[C@H](CCC(=O)O)NC(=O)[C@H](CCC(N)=O)NC(=O)[C@@H](NC(=O)[C@H](CCSC)NC(=O)[C@H](Cc1c[nH]c2ccccc12)NC(=O)[C@@H](NC(=O)[C@H](CCC(=O)O)NC(=O)[C@@H]1CCCN1C(=O)[C@@H](N)CCCNC(=N)N)[C@@H](C)CC)[C@@H](C)O)C(=O)NCC(=O)N[C@@H](CC(=O)O)C(=O)N[C@@H](CCC(=O)O)C(=O)N[C@@H](Cc1ccccc1)C(=O)N[C@@H](CC(N)=O)C(=O)N[C@@H](C)C(=O)N[C@@H](Cc1ccc(O)cc1)C(=O)N[C@@H](Cc1ccc(O)cc1)C(=O)N[C@@H](C)C(=O)N[C@@H](CCCNC(=N)N)C(N)=O [Bim_A2eT_I2dM]
Kd [1]: < 1 nM

CC[C@H](C)[C@H](NC(=O)[C@H](CCCNC(=N)N)NC(=O)[C@H](CCCNC(=N)N)NC(=O)[C@H](CC(C)C)NC(=O)[C@H](CCC(=O)O)NC(=O)[C@H](CCC(N)=O)NC(=O)[C@@H](NC(=O)[C@@H](NC(=O)[C@H](Cc1c[nH]c2ccccc12)NC(=O)[C@@H](NC(=O)[C@H](CCC(=O)O)NC(=O)[C@@H]1CCCN1C(=O)[C@@H](N)CCCNC(=N)N)[C@@H](C)CC)[C@@H](C)CC)[C@@H](C)O)C(=O)NCC(=O)N[C@@H](CC(=O)O)C(=O)N[C@@H](CCC(=O)O)C(=O)N[C@H](C(=O)N[C@@H](CC(N)=O)C(=O)N[C@@H](C)C(=O)N[C@@H](Cc1ccc(O)cc1)C(=O)N[C@@H](Cc1ccc(O)cc1)C(=O)N[C@@H](C)C(=O)N[C@@H](CCCNC(=N)N)C(N)=O)[C@@H](C)CC [Bim_A2eT_F4aI]
Kd [1]: < 1 nM
Kd [9]: 7.9 ± 2.1 nM
Kd [10]: 16 ± 4.1 nM
Kd [11]: 110 ± 62 nM
Kd [4]: 150 ± 43 nM
